Laboratory results reported in patent US6362369B1, “Phthalic acid diamide derivatives fluorine-containing aniline compounds as starting material, agricultural and horticultural insecticides, and a method for application of the insecticides” (Nihon Nohyaku Co., Ltd., priority 1997, dated 2002).

Key:
Type in all cases: in vivo
[1] = tested on: common cutworm (Spodoptera Litura); test: Insecticidal effect on common cutworm (Test Example 2); settings: 500 ppm, 25° C.; for Insecticidal effect, Test Example 2: cabbage leaf immersed; for Insecticidal effect, Test Example 2 / Insecticidal effect on common cutworm (Test Example 2), judged grade: eight days after inoculation; for Insecticidal effect on common cutworm (Test Example 2), judged grade / Insecticidal effect (Test Example 2), judged from mortality: cabbage leaf dip; for Insecticidal effect on common cutworm (Test Example 2), judged grade: second-instar larvae; for Insecticidal effect (Test Example 2), judged from mortality: 8 days after inoculation
Summary of the method: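 Mortality was scored 8 days post-inoculation, using three groups of 10 second-instar larvae kept at 25 °C in closed 9 cm dishes on air-dried treated material. The insecticidal effect was graded from calculated mortality by a set criterion.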

[2] = tested on: diamondback moth (Plutella xylostella); test: Insecticidal effect on diamondback moth (Test Example 1); settings: for Insecticidal effect, Test Example 1 / Insecticidal effect (Test Example 1), judged from mortality: diamondback moth; for Insecticidal effect on diamondback moth (Test Example 1), judged grade: mortality judged according to the criterion shown in Test Example 1; for Insecticidal effect (Test Example 1), judged from mortality: judged by the criterion of Test Example 1
Summary of the method: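 Oviposition by adults on Chinese cabbage seedling; immersion; air-dry; 25° C room. Count of hatched larvae at day 6 post-immersion → mortality → effect graded by criterion. Triplicate, 10 insects/group.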

[3] = tested on: rice leafroller (Cnaphalocrocis medinalis); test: Insecticidal effect on rice leafroller (Test Example 3); settings: 500 ppm, 25° C., humidity 70%; for Insecticidal effect, Test Example 3: rice lamina immersed; for Insecticidal effect, Test Example 3 / Insecticidal effect on rice leafroller (Test Example 3), judged grade: four days after inoculation; for Insecticidal effect on rice leafroller (Test Example 3), judged grade / Insecticidal effect (Test Example 3), judged from mortality: rice lamina dip; for Insecticidal effect on rice leafroller (Test Example 3), judged grade: third-instar larvae; for Insecticidal effect (Test Example 3), judged from mortality: 4 days after inoculation
Summary of the method: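 Insecticidal effect is judged by a predefined criterion from dead/alive counts four days after infesting air-dried lamina with third-instar larvae, kept on moistened filter paper at 25° C, 70% humidity.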

[4] = second-instar larvae of common cutworm
[5] = judged by the mortality criterion of Test Example 1
[6] = third-instar larvae of rice leafroller
[7] = common cutworm second-instar larvae
[8] = mortality judged by criterion of Test Example 1
[9] = rice leafroller third-instar larvae

Cc1cc(OCC(F)(F)C(F)F)ccc1NC(=O)c1cccc(Br)c1C(=O)NC(C)C [compound 283]
Insecticidal effect, Test Example 2 [1, 4]: A (100)
Insecticidal effect, Test Example 1 [2, 5]: A (100)
Insecticidal effect, Test Example 3 [3, 6]: A (100)

Cc1cc(C(F)(F)C(F)(F)F)ccc1NC(=O)c1cccc(Cl)c1C(=O)NC(C)(C)Cc1ccccc1 [compound 1418]
Insecticidal effect, Test Example 2 [1, 7]: A (100)
Insecticidal effect, Test Example 1 [2, 8]: A (100)
Insecticidal effect, Test Example 3 [3, 9]: A (100)

Cc1cc(SC(F)(F)C(F)(F)F)ccc1NC(=O)c1cccc(I)c1C(=O)NC(C)C [compound 909]
Insecticidal effect on common cutworm (Test Example 2), judged grade [1]: A (100)
Insecticidal effect on diamondback moth (Test Example 1), judged grade [2]: A (100)
Insecticidal effect on rice leafroller (Test Example 3), judged grade [3]: A (100)

Cc1cc(C(F)(F)C(F)(F)F)ccc1NC(=O)c1cccc(I)c1C(=O)NCc1ccccc1Cl [compound 1402]
Insecticidal effect, Test Example 2 [1, 7]: A (100)
Insecticidal effect, Test Example 1 [2, 8]: A (100)
Insecticidal effect, Test Example 3 [3, 9]: A (100)

CC(C)(C)NC(=O)c1c(F)cccc1C(=O)Nc1ccc(C(F)(F)C(F)(F)F)cc1F [compound 1507]
Insecticidal effect (Test Example 2), judged from mortality [1, 4]: A (100)
Insecticidal effect (Test Example 1), judged from mortality [2]: A (100)
Insecticidal effect (Test Example 3), judged from mortality [3, 6]: A (100)

Cc1cc(C(F)(F)C(F)(F)F)ccc1NC(=O)c1cccc(Cl)c1C(=O)NC(C)(C)c1cccc(Cl)c1 [compound 1485]
Insecticidal effect (Test Example 2), judged from mortality [1, 4]: A (100)
Insecticidal effect (Test Example 1), judged from mortality [2]: A (100)
Insecticidal effect (Test Example 3), judged from mortality [3, 6]: A (100)

Cc1ccc(Cl)cc1NC(=O)c1cccc(I)c1C(=O)NC(C)C [compound 363]
Insecticidal effect, Test Example 2 [1, 4]: A (100)
Insecticidal effect, Test Example 1 [2, 5]: A (100)
Insecticidal effect, Test Example 3 [3, 6]: A (100)

CC(C)NC(=O)c1c(Cl)cccc1C(=O)Nc1ccc(SC(F)(F)C(F)(F)Br)cc1 [compound 103]
Insecticidal effect, Test Example 2 [1, 4]: C (89-80)
Insecticidal effect, Test Example 1 [2, 5]: A (100)
Insecticidal effect, Test Example 3 [3, 6]: A (100)

Cc1cc(Oc2cccc(C(F)(F)F)c2)ccc1NC(=O)c1cccc(F)c1C(=O)NC(C)C [compound 519]
Insecticidal effect on common cutworm (Test Example 2), judged grade [1]: A (100)
Insecticidal effect on diamondback moth (Test Example 1), judged grade [2]: A (100)
Insecticidal effect on rice leafroller (Test Example 3), judged grade [3]: A (100)

Cc1cc(C(F)(F)C(F)(F)F)ccc1NC(=O)c1cccc(I)c1C(=O)NCC1CCCCC1 [compound 1028]
Insecticidal effect, Test Example 2 [1, 7]: A (100)
Insecticidal effect, Test Example 1 [2, 8]: A (100)
Insecticidal effect, Test Example 3 [3, 9]: A (100)

Cc1cc(OCC(F)(F)F)ccc1NC(=O)c1cccc(I)c1C(=O)NC(C)C [compound 379]
Insecticidal effect, Test Example 2 [1, 4]: A (100)
Insecticidal effect, Test Example 1 [2, 5]: A (100)
Insecticidal effect, Test Example 3 [3, 6]: A (100)

Cc1cc(OC(F)(F)C(F)C(F)(F)F)ccc1NC(=O)c1c(F)cccc1C(=O)NC(C)C (stereo not drawn) [compound 568]
Insecticidal effect on common cutworm (Test Example 2), judged grade [1]: C (89-80)
Insecticidal effect on diamondback moth (Test Example 1), judged grade [2]: A (100)
Insecticidal effect on rice leafroller (Test Example 3), judged grade [3]: A (100)

Cc1cc(C(F)(F)C(F)(F)F)ccc1NC(=O)c1ccc(Cl)cc1C(=O)NC(C)C [compound 1277]
Insecticidal effect, Test Example 2 [1, 7]: A (100)
Insecticidal effect, Test Example 1 [2, 8]: A (100)
Insecticidal effect, Test Example 3 [3, 9]: A (100)

Cc1cc(OC(F)(F)C(F)(Br)C(F)(F)F)ccc1NC(=O)c1c(I)cccc1C(=O)NC(C)C (stereo not drawn) [compound 446]
Insecticidal effect on common cutworm (Test Example 2), judged grade [1]: A (100)
Insecticidal effect on diamondback moth (Test Example 1), judged grade [2]: A (100)
Insecticidal effect on rice leafroller (Test Example 3), judged grade [3]: A (100)

Cc1cc(C(F)(F)C(F)(F)F)ccc1NC(=O)c1cccc(I)c1C(=O)N[C@@H](C)CO [compound 1482]
Insecticidal effect (Test Example 2), judged from mortality [1, 4]: A (100)
Insecticidal effect (Test Example 1), judged from mortality [2]: A (100)
Insecticidal effect (Test Example 3), judged from mortality [3, 6]: A (100)

CC(C)NC(=O)c1cccc(Cl)c1C(=O)Nc1ccc(OC(F)(F)C(F)OC(F)(F)C(F)(F)C(F)(F)F)cc1 (stereo not drawn) [compound 201]
Insecticidal effect, Test Example 2 [1, 4]: B (99-90)
Insecticidal effect, Test Example 1 [2, 5]: A (100)
Insecticidal effect, Test Example 3 [3, 6]: A (100)

Cc1cc(C(F)(F)C(F)(F)C(F)(F)C(F)(F)F)ccc1NC(=O)c1cccc(F)c1C(=O)NC(C)C [compound 498]
Insecticidal effect on common cutworm (Test Example 2), judged grade [1]: A (100)
Insecticidal effect on diamondback moth (Test Example 1), judged grade [2]: A (100)
Insecticidal effect on rice leafroller (Test Example 3), judged grade [3]: A (100)

CC(C)NC(=O)c1c(Cl)cccc1C(=O)Nc1ccc(SC(F)(F)Br)cc1 [compound 1110]
Insecticidal effect, Test Example 2 [1, 7]: C (89-80)
Insecticidal effect, Test Example 1 [2, 8]: A (100)
Insecticidal effect, Test Example 3 [3, 9]: A (100)

CC(C)NC(=O)c1c(F)cccc1C(=O)Nc1ccc(C(F)(C(F)(F)F)C(F)(F)F)cc1 [compound 474]
Insecticidal effect on common cutworm (Test Example 2), judged grade [1]: B (99-90)
Insecticidal effect on diamondback moth (Test Example 1), judged grade [2]: A (100)
Insecticidal effect on rice leafroller (Test Example 3), judged grade [3]: A (100)

CC(C)NC(=O)c1c(I)cccc1C(=O)Nc1ccc2c(c1)OC(F)C(F)(F)O2 (stereo not drawn) [compound 1148]
Insecticidal effect, Test Example 2 [1, 7]: A (100)
Insecticidal effect, Test Example 1 [2, 8]: A (100)
Insecticidal effect, Test Example 3 [3, 9]: A (100)

CCc1cc(C(F)(F)C(F)(F)F)ccc1NC(=O)c1cccc(Cl)c1C(=O)NC(C)(C)C [compound 1497]
Insecticidal effect (Test Example 2), judged from mortality [1, 4]: A (100)
Insecticidal effect (Test Example 1), judged from mortality [2]: A (100)
Insecticidal effect (Test Example 3), judged from mortality [3, 6]: A (100)

Cc1cc(Oc2ccc(C(F)(F)F)cc2Cl)ccc1NC(=O)c1cccc(F)c1C(=O)NC(C)C [compound 521]
Insecticidal effect on common cutworm (Test Example 2), judged grade [1]: A (100)
Insecticidal effect on diamondback moth (Test Example 1), judged grade [2]: A (100)
Insecticidal effect on rice leafroller (Test Example 3), judged grade [3]: A (100)

Cc1cc(C(F)(F)C(F)(F)F)ccc1NC(=O)c1ccccc1C(=O)NC(C)CO (stereo not drawn) [compound 1294]
Insecticidal effect, Test Example 2 [1, 7]: A (100)
Insecticidal effect, Test Example 1 [2, 8]: A (100)
Insecticidal effect, Test Example 3 [3, 9]: A (100)

Cc1cc(C(F)(F)C(F)(F)F)ccc1NC(=O)c1cccc([S+]([O-])C(F)(F)F)c1C(=O)NC(C)C (stereo not drawn) [compound 1803]
Insecticidal effect (Test Example 2), judged from mortality [1, 4]: A (100)
Insecticidal effect (Test Example 1), judged from mortality [2]: A (100)
Insecticidal effect (Test Example 3), judged from mortality [3, 6]: A (100)

Cc1cc(Cl)ccc1NC(=O)c1ccc(Br)c(Br)c1C(=O)NC(C)C [compound 339]
Insecticidal effect, Test Example 2 [1, 4]: B (99-90)
Insecticidal effect, Test Example 1 [2, 5]: A (100)
Insecticidal effect, Test Example 3 [3, 6]: A (100)

CCN(CC)C(=O)c1c(I)cccc1C(=O)Nc1ccc(Cl)cc1C [compound 1557]
Insecticidal effect (Test Example 2), judged from mortality [1, 4]: A (100)
Insecticidal effect (Test Example 1), judged from mortality [2]: A (100)
Insecticidal effect (Test Example 3), judged from mortality [3, 6]: A (100)

CC(C)NC(=O)c1c(C(=O)Nc2ccc3c(c2)OC(F)(F)O3)cccc1[N+](=O)[O-] [compound 1100]
Insecticidal effect, Test Example 2 [1, 7]: C (89-80)
Insecticidal effect, Test Example 1 [2, 8]: A (100)
Insecticidal effect, Test Example 3 [3, 9]: A (100)

Cc1cc(OC(F)(F)C(Cl)(Cl)Cl)ccc1NC(=O)c1c(Cl)cccc1C(=O)NC(C)C [compound 222]
Insecticidal effect, Test Example 2 [1, 4]: B (99-90)
Insecticidal effect, Test Example 1 [2, 5]: A (100)
Insecticidal effect, Test Example 3 [3, 6]: A (100)

CC(C)NC(=O)c1c(I)cccc1C(=O)Nc1ccc(C=C(Cl)C(F)(F)F)cc1 [compound 917]
Insecticidal effect on common cutworm (Test Example 2), judged grade [1]: A (100)
Insecticidal effect on diamondback moth (Test Example 1), judged grade [2]: A (100)
Insecticidal effect on rice leafroller (Test Example 3), judged grade [3]: A (100)

Cc1cc(C(F)(F)C(F)(F)C(F)(F)F)ccc1NC(=O)c1cccc(Cl)c1C(=O)NC(C)C [compound 130]
Insecticidal effect, Test Example 2 [1, 4]: A (100)
Insecticidal effect, Test Example 1 [2, 5]: A (100)
Insecticidal effect, Test Example 3 [3, 6]: A (100)
